Values of other authors as cited in patent US20030158158A1, “Oct preparations” (priority 2000, published 2003).

Legend:
[1] = not given; remark: listed apart in the source
[2] = not given; remark: listed apart in the source

C=C1/C(=C\C=C2/CCC[C@]3(C)[C@@H]([C@H](C)OCCC(C)(C)O)CC[C@@H]23)C[C@@H](O)C[C@@H]1O [OCT, 1α,25-dihydroxy-22-oxavitamin D3]
in vivo calcium elevating effect: low | decomposition in aqueous solutions [1]: rapidly decompose | in vitro differentiation-inducing activity [2]: strong
